# Measured values as given in patent US20030181498A1, “Bicyclic heteroaryl compounds as inhibitors of the interaction between the integrin alpha4beta1 receptor and vcam-1 and/or fibronectin” (AstraZeneca AB, priority 2000, published 2003).
# Molecular target: T1, integrin α4β1 expressed on the MOLT-4 cell membrane with fibronectin (Homo sapiens, UniProt P05556+P13612)
# T1 construct: integrin α4β1 expressed on the MOLT-4 cell membrane; host or cells: MOLT-4 human T-lymphoblastic leukaemia cells
# Experiment: MOLT-4 cell/fibronectin adhesion assay
# Assay type: cell-based
# Details: MOLT-4 cells, fibronectin-coated plates, 2 h at 37° C.; read-out: inhibitor at (inhibition of MOLT-4 cell adhesion to fibronectin)
# Text: MOLT4 cells—human T-lymphoblastic leukaemia cells European Collection of Anil Cell Cultures, Porton Down)
# Fibronectin—purified from human plasma by gelatin-sepharose affinity chromatography according to the methods described in E. Nengvall, E. Ruoslahti, Int. J. Cancer, 1977, 20, pages 1-5 and J. Forsyth et al, Methods in Enzymology, 1992, 21 pages 311-316).
# 1.1.1 MOLT-4 Cell/Fibronectin Adhesion Assay.
# The MOLT-4 cell/fibronectin adhesion assay was used to investigate the interaction of the integrin α4β1 expressed on the MOLT-4 cell membrane with fibronectin. Polystyrene 96 well plates were coated overnight at 4° C. with fibronectin, 100 μl of 10 μg/ml in PBS. Non-specific adhesion sites were blocked by adding 100 μl BSA, 20 mg/ml. After incubating for 1 h at room temperature, the solutions were aspirated. […] Adherent cells were quantified by a colorimetric acid phosphatase assay. […] After incubation for 1 h at 37° C., 50 μl sodium hydroxide (1M) was added to each well and the absorbance 405 nm was measured on a microplate spectrophotometer. Compounds which inhibited adhesion gave a lower absorbance reading. […] Percentage inhibition was calculated with respect to total (no inhibitor) and non-specific (no fibronectin) standards on each plate. […]
# T1 sequence (P13612 34-1032): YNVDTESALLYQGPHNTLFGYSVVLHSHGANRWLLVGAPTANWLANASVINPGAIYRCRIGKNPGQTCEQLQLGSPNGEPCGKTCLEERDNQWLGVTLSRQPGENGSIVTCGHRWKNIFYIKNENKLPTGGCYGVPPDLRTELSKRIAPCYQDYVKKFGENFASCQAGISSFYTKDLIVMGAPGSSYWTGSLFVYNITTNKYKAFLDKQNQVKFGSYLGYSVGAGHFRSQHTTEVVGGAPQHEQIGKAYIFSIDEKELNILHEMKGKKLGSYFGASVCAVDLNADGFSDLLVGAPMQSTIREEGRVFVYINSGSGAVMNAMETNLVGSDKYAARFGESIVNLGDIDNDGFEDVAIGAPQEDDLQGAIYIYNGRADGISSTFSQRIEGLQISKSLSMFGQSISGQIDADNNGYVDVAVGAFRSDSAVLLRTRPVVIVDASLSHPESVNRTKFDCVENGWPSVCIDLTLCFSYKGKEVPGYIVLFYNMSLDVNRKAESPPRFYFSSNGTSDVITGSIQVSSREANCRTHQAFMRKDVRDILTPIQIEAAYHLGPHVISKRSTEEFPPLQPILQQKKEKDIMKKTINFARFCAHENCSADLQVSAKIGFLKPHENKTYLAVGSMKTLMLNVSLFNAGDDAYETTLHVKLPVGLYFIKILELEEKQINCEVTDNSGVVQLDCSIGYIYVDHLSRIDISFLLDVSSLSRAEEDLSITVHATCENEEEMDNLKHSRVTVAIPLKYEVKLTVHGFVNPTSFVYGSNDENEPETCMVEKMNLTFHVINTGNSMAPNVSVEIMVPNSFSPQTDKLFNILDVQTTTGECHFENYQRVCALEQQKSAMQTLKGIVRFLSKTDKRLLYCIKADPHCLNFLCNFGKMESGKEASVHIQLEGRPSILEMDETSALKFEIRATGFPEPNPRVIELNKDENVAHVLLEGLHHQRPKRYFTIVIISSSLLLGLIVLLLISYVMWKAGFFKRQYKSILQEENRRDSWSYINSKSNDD
# T1 sequence (P05556 21-798): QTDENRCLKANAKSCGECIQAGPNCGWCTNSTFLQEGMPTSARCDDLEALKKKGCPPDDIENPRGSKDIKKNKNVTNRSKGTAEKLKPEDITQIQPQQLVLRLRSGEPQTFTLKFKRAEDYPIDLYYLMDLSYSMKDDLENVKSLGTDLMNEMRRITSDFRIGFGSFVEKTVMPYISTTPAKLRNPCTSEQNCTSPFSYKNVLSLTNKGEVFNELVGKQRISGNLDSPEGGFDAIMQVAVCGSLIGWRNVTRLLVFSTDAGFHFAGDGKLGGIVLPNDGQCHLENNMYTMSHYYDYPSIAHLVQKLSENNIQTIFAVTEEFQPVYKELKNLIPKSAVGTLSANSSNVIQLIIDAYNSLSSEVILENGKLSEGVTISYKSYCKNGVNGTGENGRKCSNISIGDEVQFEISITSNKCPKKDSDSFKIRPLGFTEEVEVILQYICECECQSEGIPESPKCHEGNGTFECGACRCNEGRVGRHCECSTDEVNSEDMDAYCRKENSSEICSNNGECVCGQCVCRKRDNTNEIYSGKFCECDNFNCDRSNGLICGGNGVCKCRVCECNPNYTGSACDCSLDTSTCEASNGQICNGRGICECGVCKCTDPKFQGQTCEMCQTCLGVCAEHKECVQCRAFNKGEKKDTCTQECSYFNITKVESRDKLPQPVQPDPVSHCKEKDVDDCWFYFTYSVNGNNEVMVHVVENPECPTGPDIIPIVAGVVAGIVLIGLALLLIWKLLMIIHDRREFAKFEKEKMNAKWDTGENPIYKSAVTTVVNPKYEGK
compound,measurement,value
COc1cc(CC(=O)Nc2ccc(=O)n(CCCCC(=O)O)c2)cc2oc(Nc3ccccc3)nc12 [Compound CV],IC50,1100 nM
